Reference: US8691864B2, “Agents useful for reducing amyloid precursor protein and treating dementia and methods of use thereof” (priority 2000, dated 2014)

test system: secreted APP; test: ELISA for secreted APP in SHSY5Y cells; format: cell-based, human; conditions: Dose 0.08 uM, 16 hours

SMILES | APP Secretion by SH-SY-5Y Cells
C[C@]12CCN(Cc3ccccc3)C1N(Cc1ccccc1)c1ccc(O)cc12 (stereo partly drawn) [MES 9238] | 117.6 % vehicle control
Cc1cc2c(cc1O)[C@]1(C)CCN(C)C1N2C (stereo partly drawn) [MES 9267] | 97.8 % vehicle control

same assay, conditions: Dose 0.25 uM, 16 hours

SMILES | APP Secretion by SH-SY-5Y Cells
C[C@]12CCN(Cc3ccccc3)C1N(Cc1ccccc1)c1ccc(O)cc12 (stereo partly drawn) [MES 9238] | 107.7 % vehicle control
Cc1cc2c(cc1O)[C@]1(C)CCN(C)C1N2C (stereo partly drawn) [MES 9267] | 97.43 % vehicle control

same assay, conditions: Dose 0.74 uM, 16 hours

SMILES | APP Secretion by SH-SY-5Y Cells
C[C@]12CCN(Cc3ccccc3)C1N(Cc1ccccc1)c1ccc(O)cc12 (stereo partly drawn) [MES 9238] | 109.7 % vehicle control
Cc1cc2c(cc1O)[C@]1(C)CCN(C)C1N2C (stereo partly drawn) [MES 9267] | 97.43 % vehicle control

same assay, conditions: Dose 2 uM, 16 hours

SMILES | APP Secretion by SH-SY-5Y Cells
COc1ccc2[nH]cc(CCN)c2c1.Cl [MES 9321] | 97.95 % vehicle control
C[C@]12CCN(Cc3ccccc3)C1N(Cc1ccccc1)c1ccc(O)cc12 (stereo partly drawn) [MES 9238] | 48.57 % vehicle control
COc1ccc2c(c1)[C@]1(C)CCSC1N2C (stereo partly drawn) [MES 9302] | 100.35 % vehicle control
COc1ccc2c(c1)[C@@]1(C)CCN(Cc3ccccc3)C1N2Cc1ccccc1 (stereo partly drawn) [MES 9237] | 149.95 % vehicle control
Clc1ccc(C2CC3CCC2N3)cn1 (stereo not drawn) [MES 9331] | 95.45 % vehicle control
CC(Br)C(=O)N(Cc1ccccc1)c1ccc(O)cc1 (stereo not drawn) [MES 9306] | 110.75 % vehicle control
COc1ccc2c(c1)C1(C)CCN(C)C1N2Cc1ccccc1 (stereo not drawn) [MES 9199] | 92.2 % vehicle control
COc1ccc2c(c1)[C@]1(C)CCN(C)C1N2Cc1ccccc1 (stereo partly drawn) [MES 9242] | 116.75 % vehicle control
COc1ccc2c(c1)[C@@]1(C)CCN(C)C1N2Cc1ccccc1 (single isomer, unassigned) [MES 9203] | 103.1 % vehicle control
Cc1cc2c(cc1O)[C@]1(C)CCN(C)C1N2C (stereo partly drawn) [MES 9267] | 93.68 % vehicle control
COc1ccc2c(c1)[C@@](C)(CC#N)C(=O)N2C [MES 9227] | 101.15 % vehicle control
CN1CC[C@@]2(C)C3=CC(=O)C(=O)C=C3N(C)C12 (stereo partly drawn) [MES 9225] | 110.45 % vehicle control
Br.CC1=C(c2ccc(O)cc2)CN2CCC[C@H]2C1.O [MES 9330] | 99.6 % vehicle control

same assay, conditions: Dose 6 uM, 16 hours

SMILES | APP Secretion by SH-SY-5Y Cells
COc1ccc2[nH]cc(CCN)c2c1.Cl [MES 9321] | 98.1 % vehicle control
C[C@]12CCN(Cc3ccccc3)C1N(Cc1ccccc1)c1ccc(O)cc12 (stereo partly drawn) [MES 9238] | 39.23 % vehicle control
COc1ccc2c(c1)[C@]1(C)CCSC1N2C (stereo partly drawn) [MES 9302] | 105.4 % vehicle control
COc1ccc2c(c1)[C@@]1(C)CCN(Cc3ccccc3)C1N2Cc1ccccc1 (stereo partly drawn) [MES 9237] | 158.1 % vehicle control
Clc1ccc(C2CC3CCC2N3)cn1 (stereo not drawn) [MES 9331] | 102.1 % vehicle control
CC(Br)C(=O)N(Cc1ccccc1)c1ccc(O)cc1 (stereo not drawn) [MES 9306] | 114.55 % vehicle control
COc1ccc2c(c1)C1(C)CCN(C)C1N2Cc1ccccc1 (stereo not drawn) [MES 9199] | 93.9 % vehicle control
COc1ccc2c(c1)[C@]1(C)CCN(C)C1N2Cc1ccccc1 (stereo partly drawn) [MES 9242] | 116.3 % vehicle control
COc1ccc2c(c1)[C@@]1(C)CCN(C)C1N2Cc1ccccc1 (single isomer, unassigned) [MES 9203] | 103.9 % vehicle control
Cc1cc2c(cc1O)[C@]1(C)CCN(C)C1N2C (stereo partly drawn) [MES 9267] | 68.64 % vehicle control
COc1ccc2c(c1)[C@@](C)(CC#N)C(=O)N2C [MES 9227] | 99.45 % vehicle control
CN1CC[C@@]2(C)C3=CC(=O)C(=O)C=C3N(C)C12 (stereo partly drawn) [MES 9225] | 109.2 % vehicle control
Br.CC1=C(c2ccc(O)cc2)CN2CCC[C@H]2C1.O [MES 9330] | 101.5 % vehicle control

same assay, conditions: Dose 20 uM, 16 hours

SMILES | APP Secretion by SH-SY-5Y Cells
COc1ccc2[nH]cc(CCN)c2c1.Cl [MES 9321] | 100.5 % vehicle control
C[C@]12CCN(Cc3ccccc3)C1N(Cc1ccccc1)c1ccc(O)cc12 (stereo partly drawn) [MES 9238] | 23.57 % vehicle control
COc1ccc2c(c1)[C@]1(C)CCSC1N2C (stereo partly drawn) [MES 9302] | 105.8 % vehicle control
COc1ccc2c(c1)[C@@]1(C)CCN(Cc3ccccc3)C1N2Cc1ccccc1 (stereo partly drawn) [MES 9237] | 173.3 % vehicle control
Clc1ccc(C2CC3CCC2N3)cn1 (stereo not drawn) [MES 9331] | 106.7 % vehicle control
CC(Br)C(=O)N(Cc1ccccc1)c1ccc(O)cc1 (stereo not drawn) [MES 9306] | 124.8 % vehicle control
COc1ccc2c(c1)C1(C)CCN(C)C1N2Cc1ccccc1 (stereo not drawn) [MES 9199] | 102.95 % vehicle control
COc1ccc2c(c1)[C@]1(C)CCN(C)C1N2Cc1ccccc1 (stereo partly drawn) [MES 9242] | 116.1 % vehicle control
COc1ccc2c(c1)[C@@]1(C)CCN(C)C1N2Cc1ccccc1 (single isomer, unassigned) [MES 9203] | 108.4 % vehicle control
Cc1cc2c(cc1O)[C@]1(C)CCN(C)C1N2C (stereo partly drawn) [MES 9267] | 22.22 % vehicle control
COc1ccc2c(c1)[C@@](C)(CC#N)C(=O)N2C [MES 9227] | 120.5 % vehicle control
CN1CC[C@@]2(C)C3=CC(=O)C(=O)C=C3N(C)C12 (stereo partly drawn) [MES 9225] | 59.75 % vehicle control
Br.CC1=C(c2ccc(O)cc2)CN2CCC[C@H]2C1.O [MES 9330] | 110.65 % vehicle control

test system: SH-SY-5Y Cells; test: MTS toxicity assay in SHSY5Y cells; format: cell-based, human; conditions: Dose 0.08 uM

SMILES | APP Toxicity SH-SY-5Y Cells (MTS assay)
C[C@]12CCN(Cc3ccccc3)C1N(Cc1ccccc1)c1ccc(O)cc12 (stereo partly drawn) [MES 9238] | 101.8 % vehicle control
Cc1cc2c(cc1O)[C@]1(C)CCN(C)C1N2C (stereo partly drawn) [MES 9267] | 101.5 % vehicle control

same assay, conditions: Dose 0.25 uM

SMILES | APP Toxicity SH-SY-5Y Cells (MTS assay)
C[C@]12CCN(Cc3ccccc3)C1N(Cc1ccccc1)c1ccc(O)cc12 (stereo partly drawn) [MES 9238] | 103.8 % vehicle control
Cc1cc2c(cc1O)[C@]1(C)CCN(C)C1N2C (stereo partly drawn) [MES 9267] | 102 % vehicle control

same assay, conditions: Dose 0.74 uM

SMILES | APP Toxicity SH-SY-5Y Cells (MTS assay)
C[C@]12CCN(Cc3ccccc3)C1N(Cc1ccccc1)c1ccc(O)cc12 (stereo partly drawn) [MES 9238] | 106.4 % vehicle control
Cc1cc2c(cc1O)[C@]1(C)CCN(C)C1N2C (stereo partly drawn) [MES 9267] | 101.9 % vehicle control

same assay, conditions: Dose 2 uM

SMILES | APP Toxicity SH-SY-5Y Cells (MTS assay)
COc1ccc2[nH]cc(CCN)c2c1.Cl [MES 9321] | 99.9 % vehicle control
C[C@]12CCN(Cc3ccccc3)C1N(Cc1ccccc1)c1ccc(O)cc12 (stereo partly drawn) [MES 9238] | 41.8 % vehicle control
COc1ccc2c(c1)[C@]1(C)CCSC1N2C (stereo partly drawn) [MES 9302] | 100.7 % vehicle control
COc1ccc2c(c1)[C@@]1(C)CCN(Cc3ccccc3)C1N2Cc1ccccc1 (stereo partly drawn) [MES 9237] | 96.55 % vehicle control
Clc1ccc(C2CC3CCC2N3)cn1 (stereo not drawn) [MES 9331] | 100.45 % vehicle control
CC(Br)C(=O)N(Cc1ccccc1)c1ccc(O)cc1 (stereo not drawn) [MES 9306] | 102.3 % vehicle control
COc1ccc2c(c1)C1(C)CCN(C)C1N2Cc1ccccc1 (stereo not drawn) [MES 9199] | 100.5 % vehicle control
COc1ccc2c(c1)[C@]1(C)CCN(C)C1N2Cc1ccccc1 (stereo partly drawn) [MES 9242] | 94.2 % vehicle control
COc1ccc2c(c1)[C@@]1(C)CCN(C)C1N2Cc1ccccc1 (single isomer, unassigned) [MES 9203] | 98.93 % vehicle control
Cc1cc2c(cc1O)[C@]1(C)CCN(C)C1N2C (stereo partly drawn) [MES 9267] | 97.98 % vehicle control
COc1ccc2c(c1)[C@@](C)(CC#N)C(=O)N2C [MES 9227] | 103.7 % vehicle control
CN1CC[C@@]2(C)C3=CC(=O)C(=O)C=C3N(C)C12 (stereo partly drawn) [MES 9225] | 104.6 % vehicle control
Br.CC1=C(c2ccc(O)cc2)CN2CCC[C@H]2C1.O [MES 9330] | 99.05 % vehicle control

same assay, conditions: Dose 6 uM

SMILES | APP Toxicity SH-SY-5Y Cells (MTS assay)
COc1ccc2[nH]cc(CCN)c2c1.Cl [MES 9321] | 101.15 % vehicle control
C[C@]12CCN(Cc3ccccc3)C1N(Cc1ccccc1)c1ccc(O)cc12 (stereo partly drawn) [MES 9238] | 40.47 % vehicle control
COc1ccc2c(c1)[C@]1(C)CCSC1N2C (stereo partly drawn) [MES 9302] | 101.2 % vehicle control
COc1ccc2c(c1)[C@@]1(C)CCN(Cc3ccccc3)C1N2Cc1ccccc1 (stereo partly drawn) [MES 9237] | 98.35 % vehicle control
Clc1ccc(C2CC3CCC2N3)cn1 (stereo not drawn) [MES 9331] | 99.99 % vehicle control
CC(Br)C(=O)N(Cc1ccccc1)c1ccc(O)cc1 (stereo not drawn) [MES 9306] | 101.45 % vehicle control
COc1ccc2c(c1)C1(C)CCN(C)C1N2Cc1ccccc1 (stereo not drawn) [MES 9199] | 101.65 % vehicle control
COc1ccc2c(c1)[C@]1(C)CCN(C)C1N2Cc1ccccc1 (stereo partly drawn) [MES 9242] | 89.8 % vehicle control
COc1ccc2c(c1)[C@@]1(C)CCN(C)C1N2Cc1ccccc1 (single isomer, unassigned) [MES 9203] | 99.17 % vehicle control
Cc1cc2c(cc1O)[C@]1(C)CCN(C)C1N2C (stereo partly drawn) [MES 9267] | 96.72 % vehicle control
COc1ccc2c(c1)[C@@](C)(CC#N)C(=O)N2C [MES 9227] | 99.27 % vehicle control
CN1CC[C@@]2(C)C3=CC(=O)C(=O)C=C3N(C)C12 (stereo partly drawn) [MES 9225] | 100.1 % vehicle control
Br.CC1=C(c2ccc(O)cc2)CN2CCC[C@H]2C1.O [MES 9330] | 98.45 % vehicle control

same assay, conditions: Dose 20 uM

SMILES | APP Toxicity SH-SY-5Y Cells (MTS assay)
COc1ccc2[nH]cc(CCN)c2c1.Cl [MES 9321] | 99.45 % vehicle control
C[C@]12CCN(Cc3ccccc3)C1N(Cc1ccccc1)c1ccc(O)cc12 (stereo partly drawn) [MES 9238] | 31.63 % vehicle control
COc1ccc2c(c1)[C@]1(C)CCSC1N2C (stereo partly drawn) [MES 9302] | 99.05 % vehicle control
COc1ccc2c(c1)[C@@]1(C)CCN(Cc3ccccc3)C1N2Cc1ccccc1 (stereo partly drawn) [MES 9237] | 99.4 % vehicle control
Clc1ccc(C2CC3CCC2N3)cn1 (stereo not drawn) [MES 9331] | 98.95 % vehicle control
CC(Br)C(=O)N(Cc1ccccc1)c1ccc(O)cc1 (stereo not drawn) [MES 9306] | 106 % vehicle control
COc1ccc2c(c1)C1(C)CCN(C)C1N2Cc1ccccc1 (stereo not drawn) [MES 9199] | 101.9 % vehicle control
COc1ccc2c(c1)[C@]1(C)CCN(C)C1N2Cc1ccccc1 (stereo partly drawn) [MES 9242] | 80.95 % vehicle control
COc1ccc2c(c1)[C@@]1(C)CCN(C)C1N2Cc1ccccc1 (single isomer, unassigned) [MES 9203] | 98.83 % vehicle control
Cc1cc2c(cc1O)[C@]1(C)CCN(C)C1N2C (stereo partly drawn) [MES 9267] | 15.52 % vehicle control
COc1ccc2c(c1)[C@@](C)(CC#N)C(=O)N2C [MES 9227] | 96.07 % vehicle control
CN1CC[C@@]2(C)C3=CC(=O)C(=O)C=C3N(C)C12 (stereo partly drawn) [MES 9225] | 66.5 % vehicle control
Br.CC1=C(c2ccc(O)cc2)CN2CCC[C@H]2C1.O [MES 9330] | 97.95 % vehicle control
